{"source": "paper PMC5114172", "about": "(Journal of applied toxicology : JAT, 2016)", "assay_type_in_all_cases": "cell-based, human", "key": {"MD-PBMCs": {"tested_on": "MD-PBMCs", "experiment": "IL-1β secretion"}, "NK cells": {"tested_on": "NK cells", "experiment": "Cell viability, trypan blue exclusion"}, "Granulocytes": {"tested_on": "Granulocytes", "experiment": "Cell viability, trypan blue exclusion", "conditions": "for Percent Viable Cells: Granulocytes"}, "PBMCs": {"tested_on": "PBMCs", "experiment": "Cell viability, trypan blue exclusion", "conditions": "for Percent Viable Cells / decrease in viability: PBMCs"}}}
{"smiles": "CCC[CH2][Sn][CH2]CCC", "note": "[DBT, Dibutyltin]", "values": [{"measurement": "Interleukin 1 beta secreted", "setting": "MD-PBMCs; donor F372, 24 h, 0.1 μM DBT, no inhibitor (SB202190 experiment)", "result": "1985 ± 53", "unit": "pg/mL"}, {"measurement": "Interleukin 1 beta secreted", "setting": "MD-PBMCs; donor F385, 24 h, 0.05 μM DBT + SB202190", "result": "65 ± 24", "unit": "pg/mL"}, {"measurement": "Interleukin 1 beta secreted", "setting": "MD-PBMCs; donor F385, 24 h, 0.05 μM DBT, no inhibitor (SB202190 experiment)", "result": "1863 ± 83", "unit": "pg/mL"}, {"measurement": "Interleukin 1 beta secreted", "setting": "MD-PBMCs; donor F385, 24 h, 0.1 μM DBT, no inhibitor (SB202190 experiment)", "result": "1126 ± 29", "unit": "pg/mL"}, {"measurement": "Percent Viable Cells", "setting": "NK cells; 24 h, 0.05 μM DBT", "result": "97±3", "unit": "%"}, {"measurement": "Percent Viable Cells", "setting": "NK cells; 24 h, 0.1 μM DBT", "result": "98±2", "unit": "%"}, {"measurement": "Percent Viable Cells", "setting": "NK cells; 24 h, 0.25 μM DBT", "result": "98±1", "unit": "%"}, {"measurement": "Percent Viable Cells", "setting": "NK cells; 24 h, 0.5 μM DBT", "result": "95±4", "unit": "%"}, {"measurement": "Percent Viable Cells", "setting": "NK cells; 24 h, 1 μM DBT", "result": "92±5", "unit": "%"}, {"measurement": "Percent Viable Cells", "setting": "NK cells; 24 h, 2.5 μM DBT", "result": "88±1", "unit": "%"}, {"measurement": "Percent Viable Cells", "setting": "NK cells; 24 h, 5 μM DBT", "result": "80±7", "unit": "%"}, {"measurement": "average decrease in viability", "setting": "NK cells; 24 h, 5 μM DBT", "result": 13, "unit": "%"}, {"measurement": "effect on viability compared to the control", "setting": "NK cells; 24 h, 0.05–1 μM DBT", "result": "no effect"}, {"measurement": "decrease in NK cell viability", "setting": "NK cells; 24 h, 2.5 and 5 μM DBT", "result": "about 10%"}, {"measurement": "Percent Viable Cells", "setting": "NK cells; 48 h, 0.05 μM DBT", "result": "97±0", "unit": "%"}, {"measurement": "Percent Viable Cells", "setting": "NK cells; 48 h, 0.1 μM DBT", "result": "96±1", "unit": "%"}, {"measurement": "Percent Viable Cells", "setting": "NK cells; 48 h, 0.25 μM DBT", "result": "93±0", "unit": "%"}, {"measurement": "Percent Viable Cells", "setting": "NK cells; 48 h, 0.5 μM DBT", "result": "90±1", "unit": "%"}, {"measurement": "Percent Viable Cells", "setting": "NK cells; 48 h, 1 μM DBT", "result": "79±12", "unit": "%"}, {"measurement": "Percent Viable Cells", "setting": "NK cells; 48 h, 2.5 μM DBT", "result": "61±6", "unit": "%"}, {"measurement": "Percent Viable Cells", "setting": "NK cells; 48 h, 5 μM DBT", "result": "64±8", "unit": "%"}, {"measurement": "reductions in viability", "setting": "NK cells; 48 h, 2.5 and 5 μM DBT", "result": "around 35%"}, {"measurement": "Percent Viable Cells", "setting": "NK cells; 6 day, 0.05 μM DBT", "result": "75±8", "unit": "%"}, {"measurement": "Percent Viable Cells", "setting": "NK cells; 6 day, 0.1 μM DBT", "result": "78±7", "unit": "%"}, {"measurement": "Percent Viable Cells", "setting": "NK cells; 6 day, 0.25 μM DBT", "result": "74±9", "unit": "%"}, {"measurement": "Percent Viable Cells", "setting": "NK cells; 6 day, 0.5 μM DBT", "result": "68±9", "unit": "%"}, {"measurement": "Percent Viable Cells", "setting": "NK cells; 6 day, 1 μM DBT", "result": "69±3", "unit": "%"}, {"measurement": "Percent Viable Cells", "setting": "NK cells; 6 day, 2.5 μM DBT", "result": "58±7", "unit": "%"}, {"measurement": "Percent Viable Cells", "setting": "NK cells; 6 day, 5 μM DBT", "result": "49±19", "unit": "%"}, {"measurement": "change in viability compared to the control", "setting": "NK cells; 6 days, 0.05–1 μM DBT", "result": "no change"}, {"measurement": "Percent Viable Cells", "setting": "Granulocytes; 24 h, 0.05 μM DBT", "result": "90±8", "unit": "%"}, {"measurement": "Percent Viable Cells", "setting": "Granulocytes; 24 h, 0.1 μM DBT", "result": "92±5", "unit": "%"}, {"measurement": "Percent Viable Cells", "setting": "Granulocytes; 24 h, 0.25 μM DBT", "result": "95±3", "unit": "%"}, {"measurement": "Percent Viable Cells", "setting": "Granulocytes; 24 h, 0.5 μM DBT", "result": "94±3", "unit": "%"}, {"measurement": "Percent Viable Cells", "setting": "Granulocytes; 24 h, 1 μM DBT", "result": "94±2", "unit": "%"}, {"measurement": "Percent Viable Cells", "setting": "Granulocytes; 24 h, 2.5 μM DBT", "result": "92±3", "unit": "%"}, {"measurement": "Percent Viable Cells", "setting": "Granulocytes; 24 h, 5 μM DBT", "result": "92±2", "unit": "%"}, {"measurement": "Percent Viable Cells", "setting": "Granulocytes; 48 h, 0.05 μM DBT", "result": "93±4", "unit": "%"}, {"measurement": "Percent Viable Cells", "setting": "Granulocytes; 48 h, 0.1 μM DBT", "result": "95±3", "unit": "%"}, {"measurement": "Percent Viable Cells", "setting": "Granulocytes; 48 h, 0.25 μM DBT", "result": "92±5", "unit": "%"}, {"measurement": "Percent Viable Cells", "setting": "Granulocytes; 48 h, 0.5 μM DBT", "result": "94±3", "unit": "%"}, {"measurement": "Percent Viable Cells", "setting": "Granulocytes; 48 h, 1 μM DBT", "result": "95±2", "unit": "%"}, {"measurement": "Percent Viable Cells", "setting": "Granulocytes; 48 h, 2.5 μM DBT", "result": "72±10", "unit": "%"}, {"measurement": "Percent Viable Cells", "setting": "Granulocytes; 48 h, 5 μM DBT", "result": "73±17", "unit": "%"}, {"measurement": "Percent Viable Cells", "setting": "Granulocytes; 6 day, 0.05 μM DBT", "result": "51±18", "unit": "%"}, {"measurement": "Percent Viable Cells", "setting": "Granulocytes; 6 day, 0.1 μM DBT", "result": "65±22", "unit": "%"}, {"measurement": "Percent Viable Cells", "setting": "Granulocytes; 6 day, 0.25 μM DBT", "result": "55±33", "unit": "%"}, {"measurement": "Percent Viable Cells", "setting": "Granulocytes; 6 day, 0.5 μM DBT", "result": "50±5", "unit": "%"}, {"measurement": "Percent Viable Cells", "setting": "Granulocytes; 6 day, 1 μM DBT", "result": "57±9", "unit": "%"}, {"measurement": "Percent Viable Cells", "setting": "Granulocytes; 6 day, 2.5 μM DBT", "result": "34±8", "unit": "%"}, {"measurement": "Percent Viable Cells", "setting": "Granulocytes; 6 day, 5 μM DBT", "result": "35±20", "unit": "%"}, {"measurement": "effect on viability", "setting": "Granulocytes; granulocytes alone, 24 h, any of the DBT exposures", "result": "not affected"}, {"measurement": "average decrease in viability", "setting": "PBMCs; PBMC, 24 h, 5 μM DBT", "result": 31, "unit": "%"}, {"measurement": "Percent Viable Cells", "setting": "PBMCs; 24 h, 0.05 μM DBT", "result": "96±4", "unit": "%"}, {"measurement": "Percent Viable Cells", "setting": "PBMCs; 24 h, 0.1 μM DBT", "result": "97±3", "unit": "%"}, {"measurement": "Percent Viable Cells", "setting": "PBMCs; 24 h, 0.25 μM DBT", "result": "96±3", "unit": "%"}, {"measurement": "Percent Viable Cells", "setting": "PBMCs; 24 h, 0.5 μM DBT", "result": "95±3", "unit": "%"}, {"measurement": "Percent Viable Cells", "setting": "PBMCs; 24 h, 1 μM DBT", "result": "86±7", "unit": "%"}, {"measurement": "Percent Viable Cells", "setting": "PBMCs; 24 h, 2.5 μM DBT", "result": "69±10", "unit": "%"}, {"measurement": "Percent Viable Cells", "setting": "PBMCs; 24 h, 5 μM DBT", "result": "65±8", "unit": "%"}, {"measurement": "decrease in viability", "setting": "PBMCs; 24 h, 2.5 and 5 μM DBT", "result": 25, "unit": "%"}, {"measurement": "Percent Viable Cells", "setting": "PBMCs; 48 h, 0.05 μM DBT", "result": "93±3", "unit": "%"}, {"measurement": "Percent Viable Cells", "setting": "PBMCs; 48 h, 0.1 μM DBT", "result": "94±4", "unit": "%"}, {"measurement": "Percent Viable Cells", "setting": "PBMCs; 48 h, 0.25 μM DBT", "result": "94±4", "unit": "%"}, {"measurement": "Percent Viable Cells", "setting": "PBMCs; 48 h, 0.5 μM DBT", "result": "91±8", "unit": "%"}, {"measurement": "Percent Viable Cells", "setting": "PBMCs; 48 h, 1 μM DBT", "result": "74±16", "unit": "%"}, {"measurement": "Percent Viable Cells", "setting": "PBMCs; 48 h, 2.5 μM DBT", "result": "56±13", "unit": "%"}, {"measurement": "decrease in viability", "setting": "PBMCs; 48 h, 2.5 μM DBT", "result": 38, "unit": "%"}, {"measurement": "Percent Viable Cells", "setting": "PBMCs; 48 h, 5 μM DBT", "result": "56±8", "unit": "%"}, {"measurement": "decrease in viability", "setting": "PBMCs; 48 h, 5 μM DBT", "result": 35, "unit": "%"}, {"measurement": "Percent Viable Cells", "setting": "PBMCs; 6 day, 0.05 μM DBT", "result": "68±45", "unit": "%"}, {"measurement": "Percent Viable Cells", "setting": "PBMCs; 6 day, 0.1 μM DBT", "result": "87±11", "unit": "%"}, {"measurement": "Percent Viable Cells", "setting": "PBMCs; 6 day, 0.25 μM DBT", "result": "69±33", "unit": "%"}, {"measurement": "Percent Viable Cells", "setting": "PBMCs; 6 day, 0.5 μM DBT", "result": "68±13", "unit": "%"}, {"measurement": "Percent Viable Cells", "setting": "PBMCs; 6 day, 1 μM DBT", "result": "43±12", "unit": "%"}, {"measurement": "Percent Viable Cells", "setting": "PBMCs; 6 day, 2.5 μM DBT", "result": "36±25", "unit": "%"}, {"measurement": "Percent Viable Cells", "setting": "PBMCs; 6 day, 5 μM DBT", "result": "42±15", "unit": "%"}]}
